Assay results published in US20240018158A1, “BRM TARGETING COMPOUNDS AND ASSOCIATED METHODS OF USE” (Prelude Therapeutics Incorporated, priority 2020, published 2024).

Target: SMARCA2 (Homo sapiens (Human), UniProt P51531)
Experiment: SMARCA2 HiBiT degradation assay in HEK293T cells
Type: cell-based
Settings: 293T HiBiT assay, 24 h; for DC50: read-out: DC50 (SM2-293T) SMARCA2 degradation potency; for Dmax: HEK-293T, read-out: Dmax % (SM2-293T) maximum SMARCA2 degradation within the concentrations tested
Description: HiBiT peptide knock-in of SMARCA2 in LgBiT expressing HEK293T cells was performed by CRISPR-mediated tagging system as described Promega. The homozygous HiBiT knock-in on c-terminus SMARCA2 was confirmed by sanger sequence. SMARCA2-HiBiT knock-in Hela monoclonal cell (CS302366) and SMARCA4-HiBiT knock-in Hela monoclonal cell (CS3023226) were purchased from Promega. The heterozygous HiBiT-knock-in was confirmed by sanger sequence in both SMARCA2-HiBiT and SMARCA4-HiBiT monoclonal cells. Compounds were prepared in a low dead volume plate at 3-fold serial dilution, and then transferred 25 nL/well into a 384 well plate (Corning: #356661) by Agilent Bravo liquid dispenser. SMARCA2-HiBiT monoclonal HEK293T cells were added at 5,000/well/25 uL into the compound containing 384 well plate. After 24 h incubation, 25 uL/well of Nano-Glo HiBiT Lytic detection buffer (Promega: N3050) was added to the wells and incubate for 10 min on a shaker, centrifuged for 5 min, and then RLU was detected on a microplate reader (Envision, PerkinElmer). The RLU ratio values are normalized to percent inhibition as follows: % inhibition=((HC−LC)−(compound−LC))/(HC−LC))*100, where HC=high control=mean signal of DMSO only; LC=low control=mean signal of 100% inhibition of RLU by 1 μM PRT1001728. An 11-point dose response curve for each compound will be generated using normalized % inhibition to determine IC50 values based on the equation: Y=Bottom+((Top-Bottom)/(1+((IC50/X)^Slope))), where Y is the % inhibition in the presence of X inhibitor concentration; Top=the top plateau of the curve; Bottom=the bottom plateau of the curve; Slope=Hill coefficient; DC50=concentration of compound with 50% degradation in relation to top/high control. DC50 values were determined by using XLfit Model 205.

SMARCA2, sequence (P51531 whole entry): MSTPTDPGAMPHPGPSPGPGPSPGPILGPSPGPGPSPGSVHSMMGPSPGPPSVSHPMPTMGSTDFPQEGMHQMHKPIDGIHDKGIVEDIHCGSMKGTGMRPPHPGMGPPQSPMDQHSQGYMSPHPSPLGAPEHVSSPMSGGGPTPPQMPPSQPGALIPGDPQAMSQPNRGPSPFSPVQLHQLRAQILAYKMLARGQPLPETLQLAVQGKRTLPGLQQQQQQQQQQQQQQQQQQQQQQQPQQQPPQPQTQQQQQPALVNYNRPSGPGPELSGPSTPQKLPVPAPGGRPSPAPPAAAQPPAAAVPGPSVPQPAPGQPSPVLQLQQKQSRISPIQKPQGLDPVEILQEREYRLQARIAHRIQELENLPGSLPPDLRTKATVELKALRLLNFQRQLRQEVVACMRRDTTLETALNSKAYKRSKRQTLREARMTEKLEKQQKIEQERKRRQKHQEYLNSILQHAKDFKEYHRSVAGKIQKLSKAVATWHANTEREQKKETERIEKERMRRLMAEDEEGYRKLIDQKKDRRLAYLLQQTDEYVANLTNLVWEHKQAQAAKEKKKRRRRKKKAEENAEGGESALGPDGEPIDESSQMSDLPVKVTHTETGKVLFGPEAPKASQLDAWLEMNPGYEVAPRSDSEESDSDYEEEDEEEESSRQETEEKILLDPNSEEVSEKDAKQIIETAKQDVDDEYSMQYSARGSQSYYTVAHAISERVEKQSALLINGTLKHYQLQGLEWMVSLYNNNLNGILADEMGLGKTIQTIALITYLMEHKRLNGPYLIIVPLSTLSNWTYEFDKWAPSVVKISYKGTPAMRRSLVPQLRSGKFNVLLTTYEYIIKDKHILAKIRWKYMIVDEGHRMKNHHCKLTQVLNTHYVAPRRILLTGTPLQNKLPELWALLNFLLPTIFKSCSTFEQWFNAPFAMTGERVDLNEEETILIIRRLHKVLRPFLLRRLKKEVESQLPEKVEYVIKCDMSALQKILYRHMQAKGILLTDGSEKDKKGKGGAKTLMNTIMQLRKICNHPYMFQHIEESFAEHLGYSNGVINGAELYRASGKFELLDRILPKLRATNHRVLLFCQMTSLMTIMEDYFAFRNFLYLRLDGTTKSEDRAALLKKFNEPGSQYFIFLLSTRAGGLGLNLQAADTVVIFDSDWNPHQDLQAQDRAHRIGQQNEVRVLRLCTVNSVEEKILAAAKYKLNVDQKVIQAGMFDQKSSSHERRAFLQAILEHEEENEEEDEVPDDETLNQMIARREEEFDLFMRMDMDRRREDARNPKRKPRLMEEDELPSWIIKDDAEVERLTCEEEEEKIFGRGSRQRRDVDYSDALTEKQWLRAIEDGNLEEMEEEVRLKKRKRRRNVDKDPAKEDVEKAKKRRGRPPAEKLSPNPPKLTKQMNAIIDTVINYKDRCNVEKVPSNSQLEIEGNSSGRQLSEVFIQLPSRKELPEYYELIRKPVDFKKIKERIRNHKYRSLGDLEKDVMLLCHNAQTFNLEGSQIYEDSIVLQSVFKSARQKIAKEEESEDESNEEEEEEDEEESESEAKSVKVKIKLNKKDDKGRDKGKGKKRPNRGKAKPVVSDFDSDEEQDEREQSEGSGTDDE

| Structure (SMILES) | DC50 [nM] | Dmax [%] |
| --- | --- | --- |
| Cc1ncsc1-c1ccc([C@H](C)NC(=O)[C@@H]2C[C@@H](O)CN2C(=O)[C@@H](c2cc(OCCN3CCCC(CN4CCN5c6cc(-c7ccccc7O)nnc6NC[C@H]5C4)C3)no2)C(C)C)cc1 (single isomer, unassigned) [Example 85] | < 100 | > 75 |
| Cc1ncsc1-c1ccc([C@H](C)NC(=O)[C@@H]2C[C@@H](O)CN2C(=O)[C@@H](NC(=O)CCN2CCC(CN3CCN4c5cc(-c6ccccc6O)nnc5NCC4C3)CC2)C(C)(C)C)cc1 (stereo partly drawn) [Example 8, (2S,4R)-4-hydroxy-1-((2S)-2-(3-(4-((2-(2-hydroxyphenyl)-5,6,6a,7,9,10-hexahydro-8H-pyrazino[1′,2′:4,5]pyrazino[2,3-c]pyridazin-8-yl)methyl)piperidin-1-yl)propanamido)-3,3-dimethylbutanoyl)-N-((S)-1-(4-(4-methylthiazol-5-yl)phenyl)ethyl)pyrrolidine-2-carboxamide] | 100 to 1000 | > 75 |
| Cc1ncsc1-c1ccc([C@H](C)NC(=O)[C@@H]2C[C@@H](OC(=O)C(C)C)CN2C(=O)[C@@H](c2cc(OCCN3CCN4c5cc(-c6ccccc6O)nnc5NC[C@H]4C3)no2)C(C)C)cc1 [Example 10, (3R,5S)-1-((R)-2-(3-(2-((S)-2-(2-hydroxyphenyl)-5,6,6a,7,9,10-hexahydro-8H-pyrazino[1′,2′:4,5]pyrazino[2,3-c]pyridazin-8-yl)ethoxy)isoxazol-5-yl)-3-methylbutanoyl)-5-(((S)-1-(4-(4-methylthiazol-5-yl)phenyl)ethyl)carbamoyl)pyrrolidin-3-yl isobutyrate] | < 100 | > 75 |
| Cc1ncsc1-c1ccc([C@H](C)NC(=O)[C@@H]2C[C@@H](O)CN2C(=O)[C@@H](c2cc(OCCN3CC4CC(C3)C4N3CCN4c5cc(-c6ccccc6O)nnc5NCC4C3)no2)C(C)C)cc1 (stereo partly drawn) [Example 12, (2S,4R)-4-hydroxy-1-((2R)-2-(3-(2-(6-(2-(2-hydroxyphenyl)-5,6,6a,7,9,10-hexahydro-8H-pyrazino[1′,2′:4,5]pyrazino[2,3-c]pyridazin-8-yl)-3-azabicyclo[3.1.1]heptan-3-yl)ethoxy)isoxazol-5-yl)-3-methylbutanoyl)-N-((S)-1-(4-(4-methylthiazol-5-yl)phenyl)ethyl)pyrrolidine-2-carboxamide] | 100 to 1000 | > 75 |
| Cc1ncsc1-c1ccc([C@H](C)NC(=O)[C@@H]2C[C@@H](O)CN2C(=O)[C@@H](c2cc(OCCN3CC4(CC(N5CCN6c7cc(-c8ccccc8O)nnc7NCC6C5)C4)C3)no2)C(C)C)cc1 (stereo partly drawn) [Example 13, (2S,4R)-4-hydroxy-1-((2R)-2-(3-(2-(6-(2-(2-hydroxyphenyl)-5,6,6a,7,9,10-hexahydro-8H-pyrazino[1′,2′:4,5]pyrazino[2,3-c]pyridazin-8-yl)-2-azaspiro[3.3]heptan-2-yl)ethoxy)isoxazol-5-yl)-3-methylbutanoyl)-N-((S)-1-(4-(4-methylthiazol-5-yl)phenyl)ethyl)pyrrolidine-2-carboxamide] | < 100 | > 75 |
| Cc1ncsc1-c1ccc([C@H](C)NC(=O)[C@@H]2C[C@@H](O)CN2C(=O)[C@@H](c2cc(OCCN3CCC(CN4CCN5c6cc(-c7ccccc7O)nnc6NC[C@H]5C4)C3)no2)C(C)C)cc1 (stereo partly drawn) [Example 15, (2S,4R)-4-hydroxy-1-((2R)-2-(3-(2-(3-(((S)-2-(2-hydroxyphenyl)-5,6,6a,7,9,10-hexahydro-8H-pyrazino[1′,2′:4,5]pyrazino[2,3-c]pyridazin-8-yl)methyl)pyrrolidin-1-yl)ethoxy)isoxazol-5-yl)-3-methylbutanoyl)-N-((S)-1-(4-(4-methylthiazol-5-yl)phenyl)ethyl)pyrrolidine-2-carboxamide] | < 100 | > 75 |
| Cc1ncsc1-c1ccc([C@H](C)NC(=O)[C@@H]2C[C@@H](O)CN2C(=O)[C@@H](c2cc(OCCN3CCCC(N4CCN5c6cc(-c7ccccc7O)nnc6NC[C@H]5C4)CC3)no2)C(C)C)cc1 (stereo partly drawn) [Example 16, (2S,4R)-4-hydroxy-1-((2R)-2-(3-(2-(4-((S)-2-(2-hydroxyphenyl)-5,6,6a,7,9,10-hexahydro-8H-pyrazino[1′,2′:4,5]pyrazino[2,3-c]pyridazin-8-yl)azepan-1-yl)ethoxy)isoxazol-5-yl)-3-methylbutanoyl)-N-((S)-1-(4-(4-methylthiazol-5-yl)phenyl)ethyl)pyrrolidine-2-carboxamide] | < 100 | > 75 |

Continued, values first:

| DC50 [nM] | Dmax [%] | Structure (SMILES) |
| --- | --- | --- |
| < 100 | – | Cc1ncsc1-c1ccc([C@H](C)NC(=O)[C@@H]2C[C@@H](O)CN2C(=O)[C@@H](c2cc(OCCN3CCC(N4CCN5c6cc(-c7ccccc7O)nnc6NC[C@H]5C4)C3)no2)C(C)C)cc1 (single isomer, unassigned) [Example 18] |
| < 100 | > 75 | Cc1ncsc1-c1ccc([C@H](C)NC(=O)[C@@H]2C[C@@H](O)CN2C(=O)[C@@H](c2cc(OCCN3CCC(N4CCN5c6cc(-c7ccccc7O)nnc6NC[C@H]5C4)C3)no2)C(C)C)cc1 (single isomer, unassigned) [Example 19] |
| < 100 | > 75 | Cc1ncsc1-c1ccc([C@H](C)NC(=O)[C@@H]2C[C@@H](O)CN2C(=O)[C@@H](c2cc(OCC(=O)N3CCC(N4CCN5c6cc(-c7ccccc7O)nnc6NC[C@H]5C4)C(C)C3)no2)C(C)C)cc1 (single isomer, unassigned) [Example 31] |
| < 100 | > 75 | Cc1ncsc1-c1ccc([C@H](C)NC(=O)[C@@H]2C[C@@H](O)CN2C(=O)[C@@H](c2cc(OCCN3CCC(N4CCN5c6cc(-c7ccccc7O)nnc6NC[C@H]5C4)C(C)C3)no2)C(C)C)cc1 (single isomer, unassigned) [Example 56] |
| < 100 | > 75 | Cc1ncsc1-c1ccc([C@H](C)NC(=O)[C@@H]2C[C@@H](O)CN2C(=O)[C@@H](c2cc(CCCN3CCCC(CN4CCN5c6cc(-c7ccccc7O)nnc6NC[C@H]5C4)C3)no2)C(C)C)cc1 (single isomer, unassigned) [Example 88] |
| < 100 | – | Cc1ncsc1-c1ccc([C@H](C)NC(=O)[C@@H]2C[C@@H](O)CN2C(=O)[C@@H](c2cc(CCCN3CCCC(CN4CCN5c6cc(-c7ccccc7O)nnc6NC[C@H]5C4)C3)no2)C(C)C)cc1 (single isomer, unassigned) [Example 89] |
| 100 to 1000 | > 75 | Cc1ncsc1-c1ccc([C@H](C)NC(=O)[C@@H]2C[C@@H](O)CN2C(=O)[C@H](NC(=O)OCCN2CCN3c4cc(-c5ccccc5O)nnc4NCC3C2)C(C)(C)C)cc1 (stereo partly drawn) [Example 7, 2-(2-(2-hydroxyphenyl)-5,6,6a,7,9,10-hexahydro-8H-pyrazino[1′,2′:4,5]pyrazino[2,3-c]pyridazin-8-yl)ethyl ((R)-1-((2S,4R)-4-hydroxy-2-(((S)-1-(4-(4-methylthiazol-5-yl)phenyl)ethyl)carbamoyl)pyrrolidin-1-yl)-3,3-dimethyl-1-oxobutan-2-yl)carbamate] |
| < 100 | > 75 | CC(=O)O[C@@H]1C[C@@H](C(=O)N[C@@H](C)c2ccc(-c3scnc3C)cc2)N(C(=O)[C@@H](c2cc(OCCN3CCN4c5cc(-c6ccccc6O)nnc5NCC4C3)no2)C(C)C)C1 (stereo partly drawn) [Example 9, (3R,5S)-1-((2R)-2-(3-(2-(2-(2-hydroxyphenyl)-5,6,6a,7,9,10-hexahydro-8H-pyrazino[1′,2′:4,5]pyrazino[2,3-c]pyridazin-8-yl)ethoxy)isoxazol-5-yl)-3-methylbutanoyl)-5-(((S)-1-(4-(4-methylthiazol-5-yl)phenyl)ethyl)carbamoyl)pyrrolidin-3-yl acetate] |
| < 100 | > 75 | Cc1ncsc1-c1ccc([C@H](C)NC(=O)[C@@H]2C[C@@H](O)CN2C(=O)[C@@H](NC(=O)CN2CCC(N3CCN4c5cc(-c6ccccc6O)nnc5NC[C@H]4C3)CC2)C(C)(C)C)cc1 [Example 11, (2S,4R)-4-hydroxy-1-((S)-2-(2-(4-((S)-2-(2-hydroxyphenyl)-5,6,6a,7,9,10-hexahydro-8H-pyrazino[1′,2′:4,5]pyrazino[2,3-c]pyridazin-8-yl)piperidin-1-yl)acetamido)-3,3-dimethylbutanoyl)-N-((S)-1-(4-(4-methylthiazol-5-yl)phenyl)ethyl)pyrrolidine-2-carboxamide] |
| < 100 | > 75 | Cc1ncsc1-c1ccc([C@H](C)NC(=O)[C@@H]2C[C@@H](O)CN2C(=O)[C@@H](c2cc(OCCN3CCC(N4CCN5c6cc(-c7ccccc7O)nnc6NC[C@H]5C4)C(F)C3)no2)C(C)C)cc1 (stereo partly drawn) [Example 14, (2S,4R)-1-((2R)-2-(3-(2-(3-fluoro-4-((S)-2-(2-hydroxyphenyl)-5,6,6a,7,9,10-hexahydro-8H-pyrazino[1′,2′:4,5]pyrazino[2,3-c]pyridazin-8-yl)piperidin-1-yl)ethoxy)isoxazol-5-yl)-3-methylbutanoyl)-4-hydroxy-N-((S)-1-(4-(4-methylthiazol-5-yl)phenyl)ethyl)pyrrolidine-2-carboxamide] |
